Common to all, as to assay type: in vivo
Series [1] relates to resistant strain of the Kanzawa spider mite. In words: Test 2: effect on a resistant strain of the Kanzawa spider mite (leaf section spray, LC50). The following applies: eggs on kidney bean leaf sections sprayed, 25°C, eleven days after the treatment. The procedure:
(§1) About 2 cm square sections of kidney bean leaves were placed on wetted absorbent cotton. Then, 7 female adults of the Kanzawa spider mite were inoculated on each leaf section and allowed to deposit eggs. After 24 hours, the adult mites were removed, 4 ml each of various dilutions of 10% Anniverse Emulsion (Compound No.1), 20% Trebon Emulsion (Compound No.2), 0.6% Avermectin Emulsion or a mixture thereof were sprayed by means of a tower sprayer, and the leaf sections were maintained in a thermostatic chamber kept at 25°C. Eleven days after the treatment, the numbers of surviving mites, dead mites, unhatched eggs and escaping mites were examined. Thus, the survival rates at various concentrations were calculated and the LC₅₀ value (in ppm) was determined therefrom.
(§2) In order to evaluate the synergistic effect of each compound of the general formula (1) and the macrolide compound, the combined toxicity index was calculated from the LC₅₀ values of the respective compounds in the same manner as in Test 1.

In series [2] the test system is second-instar larvae of the diamond-back moth. In words: Test 8: effect on the diamondback moth (residual activity on sprayed potted cabbages). The following applies: dead larvae 2 days after feeding. From the text: Potted cabbages were sprayed with a diluted fluid of an emulsion of a compound of the general formula (1) [i.e., 10% Anniverse Emulsion (Compound No.1), 20% Trebon Emulsion (Compound No.2), an emulsion of Compound No.3, an emulsion of Compound No.4, or Shironen Emulsion (Compound No.5)], 0.6% Avermectin Emulsion or a mixture thereof to such an extent that the fluid dripped from their leaves. Subsequently, cabbage leaves were sampled at predetermined intervals and fed to second-instar larvae of the diamond-back moth. Then, the number of dead larvae was examined after 2 days from the feeding.

The test system of series [3] is resistant strain (selected by Compound No.1) of the Kanzawa spider mite. In words: Test 9: effect on a resistant strain (selected by Compound No.1) of the Kanzawa spider mite (LC50). The following applies: eggs on kidney bean leaf sections sprayed, 25°C, eight days after the treatment. On the procedure:
as §1, with “removed,” for “removed, 4 ml each of”, “an emulsion of a compound of the general formula (1) [i.e.,” for “10% Anniverse Emulsion (Compound No.1),”, “an emulsion of Compound No.3, an emulsion of Compound No.4, or Shironen Emulsion (Compound No.5)], 1% Milbenock” for “0.6% Avermectin”, “Eight” for “Eleven”
as §2

In series [4] the test system is resistant strain of the Kanzawa spider mite. In words: Test 3: effect on a resistant strain of the Kanzawa spider mite, Milbenock Emulsion as macrolide (LC50). The following applies: 1% Milbenock Emulsion as macrolide, eleven days after the treatment. On the procedure: A test was carried out in the same manner as in Test 1, except that, in place of 0.6% Avermectin Emulsion, 1% Milbenock Emulsion was used as the macrolide compound.

Series [5] relates to green peach aphid. In words: Test 7: effect on the green peach aphid living on eggplants (population density). The following applies: Compound No.1 25 ppm, before treatment = 100. The procedure:
After leaves naturally infested with green peach aphids were marked, eggplants were sprayed with a diluted fluid of 10% Anniverse Emulsion (Compound No.1), 0.6% Avermectin Emulsion or a mixture thereof to such an extent that the fluid dripped from their leaves. The number of green peach aphids living on the marked leaves was counted 2, 7, 14, 21 and 28 days after the treatment, and the corrected population density index was calculated according to the equation given below. Corrected population density index =((Number of insects after treatment in treated division)/(Number of insects before treatment in treated division))/((Number of insects after treatment in untreated division)/(Number of insects before treatment in untreated division))x 100 [formula]

Series [6] deals with sensitive strain of the Kanzawa spider mite. The series can be described thus: Test 1: effect on a sensitive strain of the Kanzawa spider mite (leaf section spray, LC50). The following applies: eggs on kidney bean leaf sections sprayed, 25°C, eleven days after the treatment. The procedure:
as §1, with “No.1),” for “No.1), 20% Trebon Emulsion (Compound No.2),”
In order to evaluate the synergistic effect of the compound of the general formula (1) and the macrolide compound, the combined toxicity index was calculated from the LC₅₀ values of the respective compounds according to the equation of Y.P. Sun et al. (J. Econ. Ent., 53(5), 887, 1960).
The equation of Y.P. Sun et al. for calculating the combined toxicity index is more fully explained below. […]

Series [7] deals with Kanzawa spider mite. The series can be described thus: Test 5: effect on the Kanzawa spider mite living on potted kidney bean plants (mite counts). The settings on record: Compound No.1 25 ppm, 51 before treatment. An excerpt:
Potted kidney bean plants in the first true leaf stage were inoculated with female adults of the Kanzawa spider mite and allowed to stand in a greenhouse for about a week. After leaves infested with Kanzawa spider mites were marked, the kidney bean plants were sprayed with a diluted fluid of 10% Anniverse Emulsion (Compound No.1), a macrolide compound (i.e., 0.6% Avermectin Emulsion or 1% Milbenock Emulsion) or a mixture thereof to such an extent that the fluid dripped from their leaves. The number of Kanzawa spider mites living on the marked leaves was counted 2, 7, 12, 16 and 27 days after the treatment.

Series [8] has as its system resistant strain of the greenhouse whitefly. In words: Test 6: effect on a resistant strain of the greenhouse whitefly (eggs on leaf sections, LC50). The settings on record: one-day-old eggs on kidney bean leaf sections sprayed, 25°C, twelve days after the treatment. On the procedure: About 2 cm square sections of kidney bean leaves on which one-day-old eggs of the greenhouse whitefly had been deposited were placed on wetted absorbent cotton, sprayed with 4 ml each of various dilutions of 10% Anniverse Emulsion (Compound No.1), 0.6% Avermectin Emulsion or a mixture thereof by means of a tower sprayer, and maintained in a thermostatic chamber kept at 25°C. Twelve days after the treatment, the numbers of surviving insects, dead insects, unhatched eggs and escaping insects were examined. Thus, the survival rates at various concentrations were calculated and the LC₅₀ value (in ppm) was determined therefrom.

The test system of series [9] is resistant strain of the citrus red mite. In words: Test 4: effect on a resistant strain of the citrus red mite (leaf section spray, LC50). The settings on record: eggs on mandarin tree leaf sections sprayed, 25°C, eleven days after the treatment. The procedure: as §1, with “mandarin tree” for “kidney bean”, “citrus red” for “Kanzawa spider”, “No.1),” for “No.1), 20% Trebon Emulsion (Compound No.2),”

Setting [10] is: compound of formula (1) alone 50 ppm, leaves sampled 2 days after treatment.
[11] abbreviates: compound of formula (1) alone 50 ppm, leaves sampled 7 days after treatment.
Setting [12] is: compound of formula (1) alone 50 ppm, leaves sampled 14 days after treatment.
Where [13] appears, read: compound of formula (1) alone 50 ppm, leaves sampled 21 days after treatment.
The mark [14] stands for this setting: compound of formula (1) alone 50 ppm, leaves sampled 28 days after treatment.
Where [15] appears, read: compound of formula (1) alone 50 ppm, leaves sampled 35 days after treatment.

Take `CCOc1ccc(C(C)(C)COCc2cccc(Oc3ccccc3)c2)cc1` [Compound No.2]: the LC₅₀ value in series [1] is listed as 162 ppm; in series [3], 375 ppm. For the same molecule, the Death rate is listed as 38% in [2] (setting [10]), 15% in series [2] (setting [11]), 25% in series [2] (setting [12]) and 11% in series [2] (setting [13]).
As to `CCOc1ccc([Si](C)(C)CCCc2ccc(F)c(Oc3ccccc3)c2)cc1` [Compound No.5], the Death rate in series [2] (setting [10]) was 95%; in [2] (setting [11]), 73%; in series [2] (setting [12]) it was 50%; in series [2] (setting [13]), 15%; in series [2] (setting [14]) it was 0%; in series [2] (setting [15]), 0%. In addition, in series [3], the LC₅₀ value is given as 1150 ppm.
Take `CCOc1ccc(C(C)(C)CCCc2ccc(F)c(Oc3ccccc3)c2)cc1` [Compound No.4]: the Death rate in series [2] (setting [10]) was determined as 94%; in [2] (setting [11]) it was 65%; in series [2] (setting [12]), 60%; in series [2] (setting [13]), 10%; in [2] (setting [14]) it was 0%; in series [2] (setting [15]), 0%. The LC₅₀ value in series [3] was determined as 94 ppm.
Consider `CC(C)(COCc1cccc(Oc2ccccc2)c1)c1ccc(OC(F)(F)Br)cc1` [Compound No.1], for which the LC₅₀ value is given as 11.5 ppm in series [1]; 11.5 ppm in series [4]; 1.13 ppm in [6]; 630 ppm in series [8]; 2000 ppm in series [9]. For the same molecule, the Death rate in series [2] (compound of formula (1) alone 25 ppm, leaves sampled 2 days after treatment) stood at 90%; in [2] (compound of formula (1) alone 25 ppm, leaves sampled 7 days after treatment) it was 10%; in series [2] (compound of formula (1) alone 25 ppm, leaves sampled 14 days after treatment), 0%; in series [2] (compound of formula (1) alone 25 ppm, leaves sampled 21 days after treatment), 0%. For the same molecule, the “Corrected population density index” value is 0 in [5] (2 days after treatment); 0.3 in series [5] (7 days after treatment); 2.5 in series [5] (14 days after treatment); 42.5 in [5] (21 days after treatment); 96.5 in series [5] (28 days after treatment). Further, the “Number of living mites” value came to 0 in series [7] (2 days after treatment); 0 in [7] (7 days after treatment); 0 in [7] (12 days after treatment); 27 in series [7] (16 days after treatment); 102 in series [7] (27 days after treatment).
For `CCOc1ccc(C(C)(C)CCCc2cccc(Oc3ccccc3)c2)cc1` [Compound No.3], the Death rate in series [2] (setting [10]) is given as 70%; in series [2] (setting [11]), 45%; in series [2] (setting [12]) it was 15%; in series [2] (setting [13]), 40%; in [2] (setting [14]), 35%; in series [2] (setting [15]), 5%. The LC₅₀ value in series [3] was 519 ppm.

For the origin of these results see patent EP0714604A1, “A composition having insecticidal and acaricidal properties” (MITSUI TOATSU CHEMICALS, INCORPORATED, priority 1994, dated 1996).
